Measured values taken from US6630510B1, “Substituted succinic acid metallo-β-lactamase inhibitors and their use in treating bacterial infections” (priority 1999, dated 2003).

Columns and labels:
[1] = system: E. coli BL21(DE3)/pET30a-IMP-1; experiment: Carbapenem sensitivity (MIC) of E. coli expressing IMP-1; assay type: cell-based; conditions: for fold reduced sensitivity resulting from basal (uninduced) IMP-1 expression: pET30a-IMP-1 introduced into E. coli BL21(DE3)
Source text: A laboratory strain of E.coli engineered to express IMP-1 was used to evaluate the ability of succinate derivatives to reverse metallo-β-lactamase-mediated carbapenem resistance in bacteria. Native IMP-1, which included the N-terminal periplasmic signal sequence, was PCR amplified from […] isolated from a carbapenem resistant P. aeruginosa clinical isolate, CL56673, and cloned into the pET30a vector. […] To evaluate IMP-1 inhibitors, an overnight culture of E. coli BL2(DE3)/pET30a-IMP-1, grown 35° C. in LB broth (Difco) or Mueller Hinton broth (BBL) supplemented with kanamycin ([…]), was diluted to a final concentration of ˜10^5 cells/ml in Mueller Hinton broth (BBL) containing a subinhibitory concentration (0.25×MIC) of the carbapenem, (1S,5R,6S)-1-methyl-2-{7-[4-(aminocarbonylmethyl)-1,4-diazoniabicyclo(2.2.2)octan-1-yl]methyl-fluoren-9-on-3-yl}-6-(1R-hydroxyethyl)carbapen-2-em-3-carboxylate chloride. Various concentrations of IMP-1 inhibitor were added to the bacterial growth medium and their capacity to effect a four-fold or greater increase in sensitivity to the carbapenem was monitored.

E. coli BL21(DE3) = experiment: Carbapenem MIC in E. coli without IMP-1 expression; assay type: cell-based; conditions: without expression of IMP-1

Row | Compound | fold reduced sensitivity resulting from basal (uninduced) IMP-1 expression [1] [fold] | minimum inhibitory concentration (MIC) (E. coli BL21(DE3)) [µg/mL] | minimum inhibitory concentration (MIC) ([1]; with expression of IMP-1) [µg/mL]
1 | C[C@@H](O)[C@H]1C(=O)N2C(C(=O)O)=C(SCCN=CN)C[C@H]12 [impenem, imipenem, reference compound] | 4 | – | –
2 | (1S,5R,6S)-1-methyl-2-{7-[4-(aminocarbonylmethyl)-1,4-diazoniabicyclo(2.2.2)octan-1-yl]methyl-fluoren-9-on-3-yl}-6-(1R-hydroxyethyl)-carbapen-2-em-3-carboxylate chloride | 500 | 0.06 to 0.12 | 16 to 32
3 | C[C@@H](O)[C@H]1C(=O)N2C(C(=O)O)=C(S[C@@H]3CN[C@H](C(=O)N(C)C)C3)[C@H](C)[C@H]12 [meropenem, reference compound] | 64 | – | –
